From patent US8114888B2, “Isothiazoloquinolones and related compounds as anti-infective agents” (Achillion Pharmaceuticals, Inc., priority 2005, dated 2012)

Experiments:
[1] = Cell viability staining with Alamar Blue (compound cytotoxicity); assay type: cell-based; conditions: positive control with known CC50
Protocol: To determine whether the microcidal effect observed against S. aureus and E. coli is specific to bacterial cells, compounds are screened for cell viability effects on several human cell types.
Optimal cell density is first determined by plating cells in a 96-well plate standard sterile tissue culture plates in 100 μl media, 10% FBS at six cell densities from 500 cells/well to 15,000 cells/well. A cell free well containing only media is used as a control. Cells are incubated at 37° C. in a 5% CO2 incubator for 24 hours. 10% culture volume (10 ul) of Alamar Blue (Biosource, DAL1100, 100 mL) is then added. Cells are incubated at 37° C. in a 5% CO2 incubator and read in a Victor V plate reader, 544 nm excitation, 590 nm emission, at 3, 4, and 24 hours after the addition of Alamar Blue. The cell number vs. change in fluorescence is plotted to determine linearity of signal vs. cell number. The optimal density varies between 500-15,000 cells/well depending on the specific cell type. […]
Cells are plated at optimal cell density in a standard sterile tissue culture 96 well plate, and incubated at 37° C. […] Plates are incubated 4 hours at 37° C. in a 5% CO2 incubator and read in a Victor V plate reader, 544 nm excitation, 590 nm emission. […]
The change in fluorescence vs. concentration of test compound is plotted to determine the cytotoxicity of the compound. […]

Row | melting point | SMILES | CC50 ([1]; Chinese hamster, CHO cells (Chinese hamster ovary)) | CC50 ([1]; human, Hep 2 cells (laryngeal carcinoma))
1 | > 257 °C (dec.) | NC1CCc2cc(-c3cc4c(cc3F)c(=O)c3c(=O)[nH]sc3n4C3CC3)ccc2C1 (racemic) [Compound 31, (rac)-7-(6-Amino-5,6,7,8-tetrahydronaphthalen-2-yl)-9-cyclopropyl-6-fluoro-9H-isothiazolo[5,4-b]quinoline-3,4-dione] | – | –
2 | – | CC(C)(C)c1ccc(C(O)CCCN2CCC(C(O)(c3ccccc3)c3ccccc3)CC2)cc1 (stereo not shown) [Terfenadine] | 4.3 to 6.5 µM | 3 to 5 µM
3 | > 241 °C (dec.) | O=c1[nH]sc2c1c(=O)c1cc(F)c(C3=CCNCC3)cc1n2C1CC1 | – | –
